Results as given in patent US10954305B2 (Immunomedics, Inc., priority 2016, dated 2021).

Tests used:
p21^Waf1/Cip1 in BxPC-3 = assay: p21Waf1/Cip1 expression; assay type: cell-based, human
From the text: SN-38 is known to activate several signaling pathways in cells, leading to apoptosis (e.g., Cusack et al., 2001, Cancer Res 61:3535-40; Liu et al. 2009, Cancer Lett 274:47-53; Lagadec et al., 2008, Br J Cancer 98:335-44). Our initial studies examined the expression of 2 proteins involved in early signaling events (p21^Waf1/Cip1 and p53) and 1 late apoptotic event [cleavage of poly-ADP-ribose polymerase (PARP)] in vitro (not shown).

p53 in BxPC-3 and Calu-3 = assay: p53 expression; assay type: cell-based, human
Experimental: In addition, p53 expression in cells exposed to the ADC was higher in both cell lines compared to SN-38 (not shown). […] In terms of later apoptotic events, cleavage of PARP was evident in both cell lines when incubated with either SN-38 or the conjugate (not shown). […] The higher degree of cleavage with free SN-38 over the ADC was consistent with the cytotoxicity findings.

[1] = tested on: p21^WAF1/Cip1 in MDA-MB-468; assay: immunoblotting of apoptotic pathway; assay type: cell-based, human; conditions: by 48 h
Experimental: Cells (2×10^6) were plated in 6-well plates overnight. […] Parental hRS7 was used as a control for the ADC.

MDA-MB-231-S120 = assay: in vitro cytotoxicity, MTS (Table 14); assay type: cell-based, human; conditions: for RF (resistance factor): IC50 mean of MDA-MB-231-S120 / MDA-MB-231; for IC50: MDA-MB-231-S120, YHO-13351 2 μM where added
Experimental: (§1) Each cell line was maintained according to the recommendations of ATCC and routinely tested for mycoplasma using MYCOALERT™ mycoplasma detection kits (Lonza). The two SN-38-resistant cell lines, MDA-MB-231-5120 and NCI-N87-S120, were established by continuous exposure of the parental cells to stepwise increased concentrations of SN-38 from 6 pM to 120 nM over a period of approximately 2 years. In addition, a revertant cell line (NCI-N87-S120-REV) was obtained after culturing NCI-N87-S120 in SN-38-free medium for 4 months. The S-120 clones were maintained in medium containing 120 nM of SN-38, but cultured in drug-free medium for 7 to 14 days prior to any experiment. All cells were grown at 37° C. as monolayer cultures in a humidified atmosphere of 5% CO2.
(§2) In Vitro cytotoxicity. […] Briefly, cells were placed into wells of 96-well plates. […] From these working solutions, serial 5-fold dilutions were made in sterile media to yield final concentrations between 500 and 0.0064 nM in test wells. […] Cytotoxicity was measured as a percent of growth relative to untreated cells. Dose-response curves were generated from the mean of triplicate determinations, and IC50 values were calculated using GraphPad Prism Software V 6.05 (Advanced Graphics Software).
(§3) The effect of ABCG2 inhibitors on the IC50 values of SN-38 for the parental and resistant cell lines was determined from the respective dose-response curves obtained for SN-38 in the presence of a non-toxic concentration of ABCG2 inhibitors.

MDA-MB-231 [2] = assay: in vitro cytotoxicity, MTS (Table 14); assay type: cell-based, human; conditions: YHO-13351 2 μM where added
Experimental: as §1, §2, §3

NCI-N87-S120 = assay: in vitro cytotoxicity, MTS (Table 14); assay type: cell-based, human; conditions: for RF (resistance factor): IC50 mean of NCI-N87-S120 / NCI-N87; for IC50: NCI-N87-S120, YHO-13351 2 μM, Ko143 1 μM where added
Experimental: as §1, §2, §3

NCI-N87-S120-REV = assay: in vitro cytotoxicity, MTS; assay type: cell-based, human; conditions: revertant after 4 months in SN-38-free medium
Experimental: as §1, §2

MDA-MB-231 [3] = assay: double-strand breaks, γH2AX; assay type: cell-based, human; conditions: 250 nM, after 3 h
Experimental: (§4) Cells (5×10^5 cells/mL per sample) were incubated with or without SN-38 (250 nM) at 37° C. for the indicated times, fixed in 4% formalin for 15 min, then washed and permeabilized in 0.15% TRITON™ X-100 in PBS for 15 min. After washing twice with 1% bovine serum albumin-PBS, the cells were incubated with murine anti-γH2AX-AF488 for 45 min at 4° C. The signal intensity of γH2AX was measured by flow cytometry using a FACSCALIBUR™ (BD Biosciences).

NCI-N87 [4] = assay: double-strand breaks, γH2AX; assay type: cell-based, human; conditions: 250 nM, after 3 h
Experimental: as §4

[5] = Weidner et al., 2015; cited from earlier work
NCI-N87 [6] = assay: in vitro cytotoxicity, MTS (Table 14); assay type: cell-based; conditions: Homo sapiens, YHO-13351 2 μM, Ko143 1 μM where added
Experimental: as §1
In Vitro cytotoxicity. […] Briefly, cells were placed into wells of 96-well plates. […] Cytotoxicity was measured as a percent of growth relative to untreated cells. Dose-response curves were generated from the mean of triplicate determinations, and IC50 values were calculated using GraphPad Prism Software V 6.05 (Advanced Graphics Software).
as §3

sublines of PC-6 = conditions: Kawabata et al., 2001; cited from earlier work
sublines of HeLa = conditions: Takara et al., 2009; cited from earlier work
subline of H23 = conditions: Bessho et al., 2006; cited from earlier work

SMILES: CCc1c2c(nc3ccc(O)cc13)-c1cc3c(c(=O)n1C2)COC(=O)[C@]3(O)CC [SN-38, 7-ethyl-10-hydroxycamptothecin]
- increase in p21^Waf1/Cip1 expression (p21^Waf1/Cip1 in BxPC-3): 20 fold
- time to upregulation of p53 (p53 in BxPC-3 and Calu-3): 48 h
- decrease of p21^WAF1/Cip1 [1]: 31%
- RF (resistance factor) (MDA-MB-231-S120): 51.7
- IC50 (MDA-MB-231-S120): 248 ± 79 nM
- IC50 (MDA-MB-231 [2]): 4.8 ± 1.7 nM
- RF (resistance factor) (NCI-N87-S120): 49.1
- IC50 (NCI-N87-S120): 211 ± 39 nM
- resistance of S-120 cells vs parental cells (NCI-N87-S120; both S-120 cells): about 50 fold
- IC50 (NCI-N87-S120-REV): 50 nM
- increase of γH2AX over untreated controls (MDA-MB-231 [3]): about 2 fold
- increase of γH2AX over untreated controls (NCI-N87 [4]): about 4 fold

SMILES: COc1ccc2c3c([nH]c2c1)[C@H](CC(C)C)N1C(=O)[C@H](CCC(=O)OC(C)(C)C)NC(=O)[C@@H]1C3 [Ko143]
- effect on SN-38 toxicity in S-120 cells (NCI-N87-S120; both S-120 cells, in vitro): restored toxicity of SN-38
- stability in rat serum [5]: instability

SMILES: COc1cccc2c1C(=O)c1c(O)c3c(c(O)c1C2=O)C[C@@](O)(C(=O)CO)C[C@@H]3O[C@H]1C[C@H](N)[C@H](O)[C@H](C)O1 [Doxorubicin]
- IC50 (NCI-N87 [6]): 32.2 ± 7.5 nM
- IC50 (MDA-MB-231-S120; Homo sapiens): 43.1 ± 4.6 nM
- RF (resistance factor) (MDA-MB-231-S120): 4.0
- IC50 (MDA-MB-231 [2]; Homo sapiens): 10.9 ± 0.6 nM
- IC50 (NCI-N87-S120; Homo sapiens): 74.6 ± 3.3 nM
- RF (resistance factor) (NCI-N87-S120): 2.3
- resistance ratio (sublines of PC-6): less than 1.3
- resistance ratio (sublines of HeLa): 2.5
- resistance ratio (subline of H23): about 7.0
